SMILES strings stand for the structures.

The format of the data set is in vivo, rat. To be noted: male and female rats, D+1 to D+7 after oral tube-feeding. How it is done: The configurational stereoisomers of flocoumafen are separated by high-pressure liquid chromatography using a LUX® Cellulose-4 chiral column (00F-4490-B0, Phenomenex, Le Pecq, France) as stationary phase and a mixture formed from acetonitrile (A) and water comprising 0.1% by volume of formic acid (B), with an AB volume ratio of 92/8, as mobile phase with a flow rate of the liquid mobile phase in the chromatography column of 0.25 mL/minute. 1 μL of extract comprising flocoumafen at a concentration of 1 μg/mL of acetonitrile is injected. Detection is performed by tandem mass spectrometry (MS/MS) in negative electrospray ionization (ESI) mode. The temperature of the nebulizer gas is 350° C. and its flow rate is 8 L/minute. The pressure of the nebulizer gas is brought to 2700 hPa. In particular, the MRM (“Multiple Reaction Monitoring”) transitions m/z 541.1→382.1 and m/z 541.1→161, corresponding to the flocoumafen signal, are detected.
About 0.525 g(±0.025 g) of rat liver is weighed out accurately and placed in a 50 mL polypropylene tube. 10 mL of acetone are added and the suspension is homogenized using an UltraTurrax® homogenizer/disperser for a time of about 30 seconds. The homogenizer/disperser shaft is rinsed with hot water and then twice with 20 mL of acetone in a polypropylene tube. […]

Turning to `O=c1oc2ccccc2c(O)c1C1CC(c2ccc(OCc3ccc(C(F)(F)F)cc3)cc2)Cc2ccccc21` (single isomer, unassigned) [Enantiomer E3, flocoumafen], the “Persistence in the liver (in words, relative to enantiomer E4 and flocoumafen)” value was “lower than the persistence of enantiomer E4 of said diastereoisomer D1,4 and lower than the persistence of flocoumafen”.
